The target in test [1] is T1, recombinant F508del V470 CFTR in Fischer rat thyroid (FRT) cells (Homo sapiens, UniProt P13569, DEL508-508).
T1 construct: expressed in transfected cells
Briefly: FRT ion flux assay of F508del CFTR potentiation. Type of test: cell-based. The conditions noted are these: FRT cells expressing F508del V470 CFTR, forskolin 20 uM, 27° C. pre-incubation. The method, boiled down: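 Potentiation read as YFP quench ~21 s after iodide buffer addition, as second/initial fluorescence ratio normalised between DMSO (0%) and reference potentiator (100%).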

The target of test [2] is T2, CFTR in F508del/F508del primary CF hBE cells (Homo sapiens, UniProt P13569, DEL508-508).
T2 construct: Primary cystic fibrosis human bronchial epithelial (CF hBE) cells were expanded and cultured; endogenous in cells; host or cells: primary CF human bronchial epithelial cells, genotype F508del/F508del
Briefly: Ussing chamber electrophysiology assay of CFTR potentiation in F508del/F508del CF bronchial epithelial cells (27° C.). Type of test: cell-based. The method, boiled down: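 Short-circuit current was recorded under zero-voltage clamp across primary CF bronchial epithelia cultured >30 days at air/liquid interface, bathed apically and basolaterally in HEPES-buffered saline. Sequential additions: amiloride (30 uM), forskolin (10 uM), compound at 4 increasing levels, CFTRinh-172 (20 uM). Responses normalised between DMSO (0%) and maximal positive-control potentiator (100%).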

pEC50: −log10 of the molar value.

T2 sequence (P13569 with tags, fused parts or gaps DEL508-508): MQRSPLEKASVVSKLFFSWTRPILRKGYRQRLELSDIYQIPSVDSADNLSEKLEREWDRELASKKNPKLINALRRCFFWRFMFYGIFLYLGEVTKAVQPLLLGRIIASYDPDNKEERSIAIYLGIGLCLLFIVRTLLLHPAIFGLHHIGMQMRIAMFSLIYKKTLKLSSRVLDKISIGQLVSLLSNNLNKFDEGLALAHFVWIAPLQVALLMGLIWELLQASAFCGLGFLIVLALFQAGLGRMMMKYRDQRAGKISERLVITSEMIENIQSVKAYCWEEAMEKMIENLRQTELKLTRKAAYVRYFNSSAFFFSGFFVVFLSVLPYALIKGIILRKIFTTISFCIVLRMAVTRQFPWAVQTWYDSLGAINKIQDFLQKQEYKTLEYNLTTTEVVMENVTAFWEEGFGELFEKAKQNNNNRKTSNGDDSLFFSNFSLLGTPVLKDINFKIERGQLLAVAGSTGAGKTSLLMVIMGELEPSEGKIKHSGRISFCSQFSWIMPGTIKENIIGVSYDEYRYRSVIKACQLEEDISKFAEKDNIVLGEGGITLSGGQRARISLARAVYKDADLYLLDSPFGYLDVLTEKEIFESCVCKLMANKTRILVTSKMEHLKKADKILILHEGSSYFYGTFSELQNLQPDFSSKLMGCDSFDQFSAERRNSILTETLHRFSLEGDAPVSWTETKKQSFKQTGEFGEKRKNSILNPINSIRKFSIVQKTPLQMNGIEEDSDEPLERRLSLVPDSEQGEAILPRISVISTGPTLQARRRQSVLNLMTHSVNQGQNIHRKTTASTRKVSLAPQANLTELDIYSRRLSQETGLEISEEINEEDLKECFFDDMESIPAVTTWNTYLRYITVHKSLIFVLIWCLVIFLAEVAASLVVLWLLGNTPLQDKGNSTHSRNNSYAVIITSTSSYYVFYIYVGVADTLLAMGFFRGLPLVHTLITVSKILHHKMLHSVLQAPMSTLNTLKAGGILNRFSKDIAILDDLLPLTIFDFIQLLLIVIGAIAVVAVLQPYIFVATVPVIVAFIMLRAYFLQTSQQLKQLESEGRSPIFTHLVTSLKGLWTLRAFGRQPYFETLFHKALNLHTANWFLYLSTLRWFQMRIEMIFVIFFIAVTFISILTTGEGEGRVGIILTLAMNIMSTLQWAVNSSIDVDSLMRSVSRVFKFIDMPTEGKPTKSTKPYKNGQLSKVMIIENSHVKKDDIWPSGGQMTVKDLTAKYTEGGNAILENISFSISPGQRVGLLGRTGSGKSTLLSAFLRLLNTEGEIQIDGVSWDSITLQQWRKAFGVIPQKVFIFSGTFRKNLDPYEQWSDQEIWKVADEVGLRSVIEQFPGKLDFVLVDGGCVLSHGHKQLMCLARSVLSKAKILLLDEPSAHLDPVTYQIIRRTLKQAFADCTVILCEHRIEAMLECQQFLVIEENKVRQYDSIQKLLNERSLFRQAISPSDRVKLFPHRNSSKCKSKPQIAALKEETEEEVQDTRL
T1 sequence (P13569 with tags, fused parts or gaps DEL508-508): as above

The term pEC50 denotes the negative decadic logarithm of the EC50, by convention in mol/L. As for `CC(c1cn(-c2ccccc2F)nn1)n1cc(-c2ccc(OC3CC3)nc2)c2c(N)ncnc21` (single isomer, unassigned; enantiomer 2) [Example 120, (+) 5-[6-(Cyclopropyloxy)pyridin-3-yl]-7-{1-[1-(2-fluorophenyl)-1H-1,2,3-triazol-4-yl]ethyl}-7H-pyrrolo[2,3-d]pyrimidin-4-amine, enantiomer 2], the results for the pEC50 in test [1] and in test [2] were 7.48 and 8.26, respectively.

As to `CCC(c1cn(-c2ccccc2)nn1)n1cc(-c2ccc(OC)nc2)c2c(N)ncnc21` (single isomer, unassigned; enantiomer 2) [Example 126, 5-(6-Methoxypyridin-3-yl)-7-[1-(1-phenyl-1H-1,2,3-triazol-4-yl)propyl]-7H-pyrrolo[2,3-d]pyrimidin-4-amine, enantiomer 2], the negative logarithm of the EC50 (pEC50) in test [1] is 7.67; in test [2], 7.92.

`CCC(c1cn(-c2ccccc2)nn1)n1cc(-c2cncnc2OC)c2c(N)ncnc21` (single isomer, unassigned; enantiomer 2) [Example 128, (+) 5-(4-Methoxypyrimidin-5-yl)-7-[1-(1-phenyl-1H-1,2,3-tnazol-4-yl)propyl]-7H-pyrrolo[2,3-d]pyrimidin-4-amine, enantiomer 2]: the pEC50 in test [1] is 7.72; in test [2], 7.37.

As to `CCC(c1cn(-c2ccccc2)nn1)n1cc(-c2cnc(C(F)(F)F)nc2)c2c(N)ncnc21` (single isomer, unassigned; enantiomer 2) [Example 130, 7-[1-(1-Phenyl-1H-1,2,3-triazol-4-yl)propyl]-5-[2-(trifluoromethyl)pyrimidin-5-yl]-7H-pyrrolo[2,3-d]pyrimidin-4-amine, enantiomer 2], the negative logarithm of the EC50 (pEC50) in test [1] is 6.63; in test [2] it was 6.73.

As for `CCC(c1cn(-c2ccccc2F)nn1)n1cc(-c2ccc(Cl)cc2)c2c(N)ncnc21` (single isomer, unassigned; enantiomer 2) [Example 132, (+) 5-(4-Chlorophenyl)-7-{1-[1-(2-fluorophenyl)-1H-1,2,3-triazol-4-yl]propyl}-7H-pyrrolo[2,3-d]pyrimidin-4-amine, enantiomer 2], the negative logarithm of the EC50 (pEC50) in test [1] is 7.42; in test [2], 7.95.

For the molecule `CCC(c1cn(-c2ccccc2F)nn1)n1cc(-c2nccnc2OC)c2c(N)ncnc21` (single isomer, unassigned; enantiomer 2) [Example 136, (+) 7-{1-[1-(2-Fluorophenyl)-1H-1,2,3-triazol-4-yl]propyl}-5-(3-methoxypyrazin-2-yl)-7H-pyrrolo[2,3-d]pyrimidin-4-amine, enantiomer 2], the negative logarithm of the EC50 (pEC50) in test [1] is 7.81; in test [2], 8.46.

As to `CCC(c1cn(-c2ccccc2F)nn1)n1cc(-c2cnc(C(F)(F)F)nc2)c2c(N)ncnc21` (single isomer, unassigned; enantiomer 2) [Example 138, 7-{1-[1-(2-Fluorophenyl)-1H-1,2,3-triazol-4-yl]propyl}-5-[2-(trifluoromethyl)pyrimidin-5-yl]-7H-pyrrolo[2,3-d]pyrimidin-4-amine, enantiomer 2], the negative-log EC50 (pEC50) in test [1] and in test [2] was 6.58 throughout.

Regarding `CCC(c1cn(-c2ccccc2F)nn1)n1cc(-c2cc(F)cnc2OC)c2c(N)ncnc21` (single isomer, unassigned; enantiomer 2) [Example 140, (−) 5-(5-Fluoro-2-methoxypyridin-3-yl)-7-{1-[1-(2-fluorophenyl)-1H-1,2,3-triazol-4-yl]propyl}-7H-pyrrolo[2,3-d]pyrimidin-4-amine, enantiomer 2], the pEC50 was 6.77 in test [1] and 7.20 in test [2].

`CCC(c1cn(-c2ccccc2F)nn1)n1cc(-c2ccc(OC(F)F)nc2)c2c(N)ncnc21` (single isomer, unassigned; enantiomer 2) [Example 142, (+) 5-[6-(Difluoromethoxy)pyridin-3-yl]-7-{1-[1-(2-fluorophenyl)-1H-1,2,3-triazol-4-yl]propyl}-7H-pyrrolo[2,3-d]pyrimidin-4-amine, enantiomer 2]: the figures for the pEC50 in test [1] and in test [2] were 8.30 and 8.34, respectively.

Regarding `CCC(c1cn(-c2ccccc2F)nn1)n1cc(-c2cc[nH]n2)c2c(N)ncnc21` (single isomer, unassigned; enantiomer 2) [Example 148, 7-{1-[1-(2-Fluorophenyl)-1H-1,2,3-triazol-4-yl]propyl}-5-(1H-pyrazol-3-yl)-7H-pyrrolo[2,3-d]pyrimidin-4-amine, enantiomer 2], the pEC50 in test [1] was 7.91; in test [2], 7.59.

With `CCC(c1cn(-c2ccc(F)cc2)nn1)n1cc(-c2cncnc2OC)c2c(N)ncnc21` (single isomer, unassigned; enantiomer 2) [Example 150, (−) 7-{1-[1-(4-Fluorophenyl)-1H-1,2,3-triazol-4yl]propyl}-5-(4-methoxypyrimidin-5-yl)-7H-pyrrolo[2,3-d]pyrimidin-4-amine, enantiomer 2], the pEC50 in test [1] is 6.53; in test [2], 6.03.

For the molecule `CCC(c1cn(-c2ccc(F)c(F)c2)nn1)n1cc(-c2cncnc2OC)c2c(N)ncnc21` (single isomer, unassigned; enantiomer 2) [Example 152, (−) 7-{1-[1-(3,4-Difluorophenyl)-1H-1,2,3-triazol-4-yl]propyl}-5-(4-methoxypyrimidin-5-yl)-7H-pyrrolo[2,3-d]pyrimidin-4-amine, enantiomer 2], the pEC50 in test [1] is 6.74; in test [2], 6.35.

In the case of `CCC(c1cn(-c2ccc(F)c(F)c2)nn1)n1cc(-c2cnc(C(F)(F)F)nc2)c2c(N)ncnc21` (single isomer, unassigned; enantiomer 2) [Example 154, 7-{1-[1-(3,4-Difluorophenyl)-1H-1,2,3-triazol-4-yl]propyl}-5-[2-(trifluoromethyl)pyrimidin-5-yl]-7H-pyrrolo[2,3-d]pyrimidin-4-amine, enantiomer 2], the results for the pEC50 in test [1] and in test [2] were 6.20 and 6.49, respectively.

In the case of `CCC(c1cn(-c2ccc(F)c(F)c2)nn1)n1cc(-c2cc(F)cnc2OC)c2c(N)ncnc21` (single isomer, unassigned; enantiomer 2) [Example 156, 7-{1-[1-(3,4-Difluorophenyl)-1H-1,2,3-triazol-4-yl]propyl}-5-(5-fluoro-2-methoxypyridin-3-yl)-7H-pyrrolo[2,3-d]pyrimidin-4-amine, enantiomer 2], the pEC50 was 6.64 in test [1] and 7.24 in test [2].

As for `CCC(c1cn(-c2ccc(F)c(F)c2)nn1)n1cc(-c2cnc(OC)c(F)c2)c2c(N)ncnc21` (single isomer, unassigned; enantiomer 2) [Example 158, 7-{1-[1-(3,4-Difluorophenyl)-1H-1,2,3-triazol-4-yl]propyl}-5-(5-fluoro-6-methoxypyridin-3-yl)-7H-pyrrolo[2,3-d]pyrimidin-4-amine, enantiomer 2], the negative logarithm of the EC50 (pEC50) in test [1] was 6.95; in test [2], 7.71.

As for `CCC(c1cn(-c2ccc(F)cc2F)nn1)n1cc(-c2cncnc2OC)c2c(N)ncnc21` (single isomer, unassigned; enantiomer 2) [Example 160, (−) 7-{1-[1-(2,4-Difluorophenyl)-1H-1,2,3-triazol-4-yl]propyl}-5-(4-methoxypyrimidin-5-yl)-7H-pyrrolo[2,3-d]pyrimidin-4-amine, enantiomer 2], the pEC50 in test [1] is 6.35; in test [2], 6.23.

The values are drawn from patent US12612409B2, “Pyrrolopyrimidines as CFTR potentiators” (Cystic Fibrosis Foundation, priority 2016, dated 2026).
